Experimental data: patent US6812243B2, “Indole derivatives and their use for the treatment of malignant and other diseases based on pathological proliferation” (Zentaris AG, priority 1998, dated 2004)
Read-outs that look alike come from different tables or passages of the source.

Key:
[1] = biological target: T1, EGF receptor tyrosine kinase (Homo sapiens, UniProt P00533); experiment: EGFR phosphorylation in intact A 431 cells; type: cell-based; conditions: intact A431 cells; read-out: EGFR phosphorylation in vivo (A 431 cells), IC 50
T1 construct: tested in intact A431 cells; endogenous in cells; host or cells: A431 cells
Method: The compounds according to the invention were furthermore investigated in vitro using isolated plasma membranes of Swiss 3T3 cells and using PDGF receptor purified from overexpressing cells, tested in intact A431 cells (and in some cases also in Swiss 3T3 plasma membranes) for possible inhibition of the EGF receptor tyrosine kinase and tested for inhibition of recombinant Src kinase.
30 μM. The compounds thus have specificity for the inhibition of the PDGF receptor tyrosine kinase in relation to other tyrosine kinases.

[2] = tested on: sis-transformed NIH3T3 cells; experiment: Colony formation of sis-3T3 cells in soft agar; type: cell-based; conditions: Mus musculus, read-out: Colony formation (sis-3T3 cells), IC 50
Excerpt: Furthermore, the compounds were investigated for a possible antitransforming action using sis-transformed NIH3T3 cells. In these cells, a transformed phenotype characterized, inter alia, by irregular multilayered growth and colony formation in soft agar is maintained by expression of PDGF-BB and permanent activation of the endogenous PDGF receptors.

[3] = tested on: Swiss 3T3 cells; experiment: DNA synthesis in growth factor stimulated Swiss 3T3 cells; type: cell-based
Excerpt: DNA synthesis tests in Swiss 3T3 cells which are stimulated with different growth factors are suitable for characterizing selective antiproliferative actions of receptor tyrosine kinase inhibitors. The compounds were investigated with respect to their action on the DNA sythesis stimulated in these cells by PDGF-BB, bFGF, FCS and the combination of EGF and insulin. These stimulants are approximately equipotent and increase the DNA synthesis in previously growth-arrested Swiss 3T3 cells to 5- to 20-fold.

[4] = biological target: T2, PDGF receptor (Mus musculus, UniProt P05622); experiment: Inhibition of PDGF-dependent tyrosine phosphorylation in intact Swiss 3T3 cells; type: cell-based; conditions: 2 h incubation with compound, PDGF-BB 100 ng/ml for 5 min, read-out: IC 50 (μM), inhibition of PDGF-dependent tyrosine phosphorylation
T2 construct: other: Swiss 3T3 cells, 2 h incubation with compound; PDGFR phosphorylation in vivo (Swiss 3T3 cells), IC 50; other: intact Swiss 3T3 cells; PDGFR phosphorylation in vitro (Swiss 3T3 membranes), IC 50; other: isolated plasma membranes of Swiss 3T3 cells
T2 sequence (P05622 32-1098): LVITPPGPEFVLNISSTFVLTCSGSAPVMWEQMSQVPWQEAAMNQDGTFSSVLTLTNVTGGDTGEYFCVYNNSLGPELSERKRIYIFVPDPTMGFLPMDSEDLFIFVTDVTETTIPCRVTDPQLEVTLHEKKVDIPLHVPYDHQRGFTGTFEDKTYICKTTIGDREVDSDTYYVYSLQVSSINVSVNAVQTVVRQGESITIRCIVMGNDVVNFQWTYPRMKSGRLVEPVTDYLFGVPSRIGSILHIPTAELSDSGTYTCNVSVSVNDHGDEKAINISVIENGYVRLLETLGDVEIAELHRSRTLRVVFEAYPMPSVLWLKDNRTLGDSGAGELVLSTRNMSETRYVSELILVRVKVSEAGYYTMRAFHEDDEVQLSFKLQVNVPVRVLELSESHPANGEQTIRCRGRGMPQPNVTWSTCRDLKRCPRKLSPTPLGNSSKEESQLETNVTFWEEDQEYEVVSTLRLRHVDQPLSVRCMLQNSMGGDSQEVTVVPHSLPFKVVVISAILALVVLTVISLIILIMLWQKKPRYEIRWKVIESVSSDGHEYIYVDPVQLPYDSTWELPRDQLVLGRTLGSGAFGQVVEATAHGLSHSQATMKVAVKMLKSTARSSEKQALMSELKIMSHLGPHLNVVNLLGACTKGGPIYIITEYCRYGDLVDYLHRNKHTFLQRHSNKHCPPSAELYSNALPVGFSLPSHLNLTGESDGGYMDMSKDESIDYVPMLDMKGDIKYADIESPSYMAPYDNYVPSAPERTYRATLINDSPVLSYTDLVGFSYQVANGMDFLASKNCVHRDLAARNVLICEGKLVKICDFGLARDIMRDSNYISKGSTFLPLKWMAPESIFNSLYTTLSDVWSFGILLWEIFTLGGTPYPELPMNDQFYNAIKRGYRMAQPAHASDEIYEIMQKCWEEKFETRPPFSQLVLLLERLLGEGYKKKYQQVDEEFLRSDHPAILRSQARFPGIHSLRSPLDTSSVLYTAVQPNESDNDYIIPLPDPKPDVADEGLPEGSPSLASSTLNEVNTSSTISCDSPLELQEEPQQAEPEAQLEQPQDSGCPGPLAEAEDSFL
Method: Swiss 3T3 cells are cultured for 1 week under standard conditions (DMEM with glutamine, 4 g of glucose/1, 10% FCS, antibiotics, 5-7.5% CO2) and are confluent and no longer proliferating at the end of the culture period. The medium is replaced by serum-free DMEM and the cells are incubated at 37° C. for 2 h with the compounds according to the invention or, in control experiments, with DMSO (final concentration 0.1-1%). The cells are then stimulated at room temperature for 5 min by addition of PDGF-BB to a final concentration of 100 ng/ml, in controls addition of the corresponding solvent takes place. The cells are then washed twice with ice-cold PBS and lysed in a Triton X-100-containing lysis buffer (composition and process as described in Selective platelet-derived growth factor receptor kinase blockers reverse sis-transformation M. Kovalenko, A. Gazit, A. Böhmer, C. Rorsman, L. Rönnstrand, C. H. Heldin, J. Waltenberger, F. D. Böhmer, A. Levitzki (1994) Cancer Res. 54, 6106-6114). The lysates are centrifuged and the protein concentration is determined. […]
Tyrosine phosphorylation is detected by standard processes using antiphosphosphotyrosine [sic]antibodies. […] Quantification is carried out either by grey value analyses of films used for the luminescence detection or directly using a luminometer. […]

T1 sequence (P00533 25-1210): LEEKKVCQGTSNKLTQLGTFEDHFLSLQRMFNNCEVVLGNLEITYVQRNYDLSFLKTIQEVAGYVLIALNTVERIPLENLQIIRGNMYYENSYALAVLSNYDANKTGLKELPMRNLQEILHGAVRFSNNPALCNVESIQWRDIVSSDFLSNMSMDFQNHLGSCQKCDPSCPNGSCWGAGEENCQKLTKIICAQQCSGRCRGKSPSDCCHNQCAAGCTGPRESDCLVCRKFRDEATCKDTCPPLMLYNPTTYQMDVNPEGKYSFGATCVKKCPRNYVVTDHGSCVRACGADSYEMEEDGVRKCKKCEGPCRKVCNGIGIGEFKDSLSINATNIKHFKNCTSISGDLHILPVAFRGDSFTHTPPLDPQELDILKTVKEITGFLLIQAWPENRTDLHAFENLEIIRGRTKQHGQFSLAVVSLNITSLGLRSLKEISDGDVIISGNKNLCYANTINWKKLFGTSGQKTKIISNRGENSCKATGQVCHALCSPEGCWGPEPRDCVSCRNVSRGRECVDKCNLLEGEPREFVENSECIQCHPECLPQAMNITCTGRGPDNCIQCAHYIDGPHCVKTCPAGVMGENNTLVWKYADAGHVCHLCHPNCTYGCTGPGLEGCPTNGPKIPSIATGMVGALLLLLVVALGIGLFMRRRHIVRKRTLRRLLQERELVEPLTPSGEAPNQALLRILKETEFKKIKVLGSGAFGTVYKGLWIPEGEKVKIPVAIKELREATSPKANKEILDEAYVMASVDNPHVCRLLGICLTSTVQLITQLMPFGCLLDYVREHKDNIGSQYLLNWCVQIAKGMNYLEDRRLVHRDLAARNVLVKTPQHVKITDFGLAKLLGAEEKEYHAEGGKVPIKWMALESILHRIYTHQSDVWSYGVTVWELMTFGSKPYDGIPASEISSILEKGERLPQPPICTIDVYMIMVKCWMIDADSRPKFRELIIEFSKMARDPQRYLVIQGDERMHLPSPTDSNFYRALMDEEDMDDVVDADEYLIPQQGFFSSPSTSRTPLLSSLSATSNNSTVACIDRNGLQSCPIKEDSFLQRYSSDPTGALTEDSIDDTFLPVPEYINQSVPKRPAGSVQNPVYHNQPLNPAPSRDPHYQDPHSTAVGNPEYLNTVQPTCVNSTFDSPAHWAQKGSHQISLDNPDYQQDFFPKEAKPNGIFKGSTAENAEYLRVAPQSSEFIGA

melting point	SMILES	other results
169 °C	CN1C(=O)C(Br)=C(c2c(CCc3cc4ccccc4[nH]3)[nH]c3ccccc23)C1=O [Example 91, 3-Bromo-4-(2-(2-(1H-2-indolyl)ethyl)-1H-3-indolyl)-1-methyl-2,5-dihydro-1H-pyrrole-2,5-dione]	–
165 °C (dec.)	CN1C(=O)C(Br)=C(c2c(CCCCc3cc4ccccc4[nH]3)[nH]c3ccccc23)C1=O [Example 92, 3-Bromo-4-(2-(4-(1H-2-indolyl)butyl)-1H-3-indolyl)-1-methyl-2,5-dihydro-1H-pyrrole-2,5-dione]	–
125 °C (dec.)	CN1C(=O)C(Br)=C(c2c(CCCCCc3cc4ccccc4[nH]3)[nH]c3ccccc23)C1=O [Example 93, 3-Bromo-4-(2-(5-(1H-2-indolyl)pentyl)-1H-3-indolyl)-1-methyl-2,5-dihydro-1H-pyrrole-2,5-dione]	–
137 °C (dec.)	CN1C(=O)C(Br)=C(c2c(CCCCCc3[nH]c4ccccc4c3C3=C(Br)C(=O)N(C)C3=O)[nH]c3ccccc23)C1=O [Example 112, 3-Bromo-4-(2-(5-(3-(4-bromo-1-methyl-2,5-dioxo-2,5-dihydro-1H-3-pyrrolyl)-1H-2-indolyl)pentyl)-1H-3-indolyl)-1-methyl-2,5-dihydro-1H-pyrrole-2,5-dione]	–
190 °C (dec.)	CN1C(=O)C(Br)=C(c2c(CCCCc3[nH]c4ccccc4c3C3=C(Br)C(=O)N(C)C3=O)[nH]c3ccccc23)C1=O [Example 117, 3-Bromo-4-(2-(4-(3-(4-bromo-1-methyl-2,5-dioxo-2,5-dihydro-1H-3-pyrrolyl)-1H-2-indolyl)butyl)-1H-3-indolyl)-1-methyl-2,5-dihydro-1H-pyrrole-2,5-dione]	–

More lines, now with the values behind:

SMILES	melting point	other results
O=C(c1cc2ccccc2[nH]1)c1cc2ccccc2[nH]1 [Example 19, Bisindol-2-ylmethan-1-one]	–	IC50 [1]: > 10 µM; IC50 [2]: 3 to 10 µM; IC50 ([3]; Swiss-3T3, read-out: DNA synthesis (Swiss 3T3 cells), 10% FCS, IC 50): > 30 µM; IC50 ([3]; Swiss-3T3, read-out: DNA synthesis (Swiss 3T3 cells), EGF/insulin-stimulated, IC 50): > 30 µM; IC50 ([3]; Swiss-3T3, read-out: DNA synthesis (Swiss 3T3 cells), FGF-stimulated, IC 50): 3 to 10 µM; IC50 ([3]; Swiss-3T3, read-out: DNA synthesis (Swiss 3T3 cells), PDGF-stimulated, IC 50): 3 to 10 µM
COc1ccc2[nH]c(C(=O)c3cc4ccccc4[nH]3)cc2c1 [Example 20, (5-Methoxyindol-2-yl)-(indol-2-yl)methan-1-one]	233 to 235 °C	IC50 [1]: > 10 µM
O=C(Cc1cccs1)Oc1ccc2[nH]c(C(=O)c3cc4ccccc4[nH]3)cc2c1 [Example 58]	–	IC50 [4]: 0.3 to 1 µM
O=C(c1c[nH]c2ccccc12)c1c[nH]c2ccccc12 [Example 94, Bis(indol-3-yl)methanone]	297 to 299 °C	–
O=C1NC(=O)C(c2c(CCCc3[nH]c4ccccc4c3C3=C(Br)C(=O)NC3=O)[nH]c3ccccc23)=C1Br [Example 113, 3-Bromo-4-(2-(3-(3-(4-bromo-2,5-dioxo-2,5-dihydro-1H-3-pyrrolyl)-1H-2-indolyl)propyl)-1H-3-indolyl)-2,5-dihydro-1H-pyrrole-2,5-dione]	> 350 °C	–
O=C1NC(=O)C(c2c(CCCCCc3[nH]c4ccccc4c3C3=C(Br)C(=O)NC3=O)[nH]c3ccccc23)=C1Br [Example 114, 3-Bromo-4-(2-(5-(3-(4-bromo-2,5-dioxo-2,5-dihydro-1H-3-pyrrolyl)-1H-2-indolyl)pentyl)-1H-3-indolyl)-2,5-dihydro-1H-pyrrole-2,5-dione]	> 350 °C (dec.)	–
O=C1NC(=O)C(c2c(CCCCCCCCc3[nH]c4ccccc4c3C3=C(Br)C(=O)NC3=O)[nH]c3ccccc23)=C1Br [Example 115, 3-Bromo-4-(2-(8-(3-(4-bromo-2,5-dioxo-2,5-dihydro-1H-3-pyrrolyl)-1H-2-indolyl)octyl)-1H-3-indolyl)-2,5-dihydro-1H-pyrrole-2,5-dione]	180 °C (dec.)	–
CN1C(=O)C(Br)=C(c2c(CCc3[nH]c4ccccc4c3C3=C(Br)C(=O)N(C)C3=O)[nH]c3ccccc23)C1=O [Example 116, 3-Bromo-4-(2-(2-(3-(4-bromo-1-methyl-2,5-dioxo-2,5-dihydro-1H-3-pyrrolyl)-1H-2-indolyl)ethyl)-1H-3-indolyl)-1-methyl-2,5-dihydro-1H-pyrrole-2,5-dione]	179 °C	–
CN1C(=O)C(Br)=C(c2c(CCCCCCCCc3[nH]c4ccccc4c3C3=C(Br)C(=O)N(C)C3=O)[nH]c3ccccc23)C1=O [Example 118, 3-Bromo-4-(2-(8-(3-(4-bromo-1-methyl-2,5-dioxo-2,5-dihydro-1H-3-pyrrolyl)-1H-2-indolyl)octyl)-1H-3-indolyl)-1-methyl-2,5-dihydro-1H-pyrrole-2,5-dione]	185 °C (dec.)	–
O=C1NC(=O)C(c2c(CCCCCCCCCCc3[nH]c4ccccc4c3C3=C(Br)C(=O)NC3=O)[nH]c3ccccc23)=C1Br [Example 120, 3-Bromo-4-(2-(10-(3-(4-bromo-2,5-dioxo-2,5-dihydro-1H-3-pyrrolyl)-1H-2-indolyl)decyl)-1H-3-indolyl)-2,5-dihydro-1H-pyrrole-2,5-dione]	164 °C (dec.)	–
CN1C(=O)C(c2c(CCCCCc3[nH]c4ccccc4c3C3=C(N4CCCCC4)C(=O)N(C)C3=O)[nH]c3ccccc23)=C(N2CCCCC2)C1=O [Example 124, 1-Methyl-3-(1-piperidinyl)-4-(2-(5-(3-(1-methyl-4-(1-piperidinyl)-2,5-dioxo-2,5-dihydro-1H-3-pyrrolyl)-1H-2-indolyl)pentyl)-1H-3-indolyl)-2,5-dihydro-1H-pyrrole-2,5-dione]	262 °C	–
